# Laboratory results from patent US10294202B2, “Pyrrolidinones as herbicides” (FMC Corporation, priority 2013, dated 2019).
# Experiments:
# field poppy = assay: Test D pre-/postemergence herbicide test; assay type: in vivo, Papaver rhoeas; settings: for Plant response rating: Field Poppy, scale 0 to 100; for Plant response rating, Field Poppy: scale 0 to 100 (0 no effect, 100 complete control)
# In short: (§1)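 Visual 0–100 ratings (0 = no effect, 100 = complete control) versus controls, made 7 to 21 days after treatment in a controlled growth environment. Test chemicals in surfactant-containing non-phytotoxic solvent were applied preemergence to silt loam-sown seeds and postemergence to plants 2–18 cm tall.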
# wild poinsettia = assay: Test E preemergence herbicide test; assay type: in vivo, Euphorbia heterophylla; design: key: 0 = no effect, 100 = complete control
# In short: (§2)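 Greenhouse preemergence test: seeds sown into silt loam received compound in a non-phytotoxic solvent mixture with surfactant. Plants grew 21 days before visual comparison with controls. Scores run from 0, no effect, to 100, complete control.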
# radish, wild = assay: Test D pre-/postemergence herbicide test; assay type: in vivo, Raphanus raphanistrum; settings: for Plant response rating: Postemergence, Radish, Wild, scale 0 to 100; for Plant response rating, Radish, Wild: Preemergence, scale 0 to 100 (0 no effect, 100 complete control)
# In short: as §1
# foxtail, green = assay: Test D pre-/postemergence herbicide test; assay type: in vivo, Setaria viridis; settings: for Plant response rating: Foxtail, Green, scale 0 to 100; for Plant response rating, Foxtail, Green: scale 0 to 100 (0 no effect, 100 complete control)
# In short: as §1
# johnsongrass = assay: Test E preemergence herbicide test; assay type: in vivo, Sorghum halepense; design: key: 0 = no effect, 100 = complete control
# In short: as §2
# wheat, spring = assay: Test D pre-/postemergence herbicide test; assay type: in vivo, Triticum aestivum; settings: for Plant response rating: Postemergence, Wheat, Spring, scale 0 to 100; for Plant response rating, Wheat, Spring: Preemergence, scale 0 to 100 (0 no effect, 100 complete control)
# In short: as §1
# wheat, winter = assay: Test D pre-/postemergence herbicide test; assay type: in vivo, Triticum aestivum; settings: for Plant response rating: Postemergence, Wheat, Winter, scale 0 to 100; for Plant response rating, Wheat, Winter: Preemergence, scale 0 to 100 (0 no effect, 100 complete control)
# In short: as §1
structure (smiles),measurement,setting,value
"O=C1NCC(c2ccc(C(F)(F)F)cc2)C1C(=O)Nc1cccc(F)c1F (stereo not shown) [Compound 80, N-(2,3-difluorophenyl)-2-oxo-4-[4-(trifluoromethyl)phenyl]-3-pyrrolidinecarboxamide]",Plant response rating,"field poppy; Postemergence, 31 g ai/ha",25
same,Plant response rating,"field poppy; Postemergence, 62 g ai/ha",55
same,Plant response rating,"field poppy; Postemergence, 125 g ai/ha",20
same,Plant response rating,"field poppy; Postemergence, 250 g ai/ha",50
same,"Plant response rating, Field Poppy","field poppy; Preemergence, 62 g ai/ha",100
same,"Plant response rating, Field Poppy","field poppy; Preemergence, 31 g ai/ha",90
same,Plant response rating,"field poppy; Preemergence, 125 g ai/ha",100
same,Plant response rating,"field poppy; Preemergence, 250 g ai/ha",100
same,"Plant response rating, Poinsettia, Wild",wild poinsettia; 16 g ai/ha,0
same,"Plant response rating, Poinsettia, Wild",wild poinsettia; 31 g ai/ha,0
same,"Plant response rating, Poinsettia, Wild",wild poinsettia; 62 g ai/ha,0
same,"Plant response rating, Poinsettia, Wild",wild poinsettia; 125 g ai/ha,0
same,"Plant response rating, Poinsettia, Wild",wild poinsettia; 250 g ai/ha,0
same,Plant response rating,"radish, wild; 31 g ai/ha",50
same,Plant response rating,"radish, wild; 62 g ai/ha",70
same,Plant response rating,"radish, wild; 125 g ai/ha",35
same,Plant response rating,"radish, wild; 250 g ai/ha",60
same,"Plant response rating, Radish, Wild","radish, wild; 62 g ai/ha",30
same,"Plant response rating, Radish, Wild","radish, wild; 125 g ai/ha",30
same,"Plant response rating, Radish, Wild","radish, wild; 31 g ai/ha",15
same,"Plant response rating, Radish, Wild","radish, wild; 250 g ai/ha",70
same,Plant response rating,"foxtail, green; Postemergence, 31 g ai/ha",45
same,Plant response rating,"foxtail, green; Postemergence, 62 g ai/ha",45
same,Plant response rating,"foxtail, green; Postemergence, 125 g ai/ha",65
same,Plant response rating,"foxtail, green; Postemergence, 250 g ai/ha",65
same,"Plant response rating, Foxtail, Green","foxtail, green; Preemergence, 62 g ai/ha",65
same,"Plant response rating, Foxtail, Green","foxtail, green; Preemergence, 31 g ai/ha",20
same,Plant response rating,"foxtail, green; Preemergence, 125 g ai/ha",75
same,Plant response rating,"foxtail, green; Preemergence, 250 g ai/ha",80
same,"Plant response rating, Johnsongrass",johnsongrass; 16 g ai/ha,0
same,"Plant response rating, Johnsongrass",johnsongrass; 31 g ai/ha,0
same,"Plant response rating, Johnsongrass",johnsongrass; 62 g ai/ha,0
same,"Plant response rating, Johnsongrass",johnsongrass; 125 g ai/ha,10
same,"Plant response rating, Johnsongrass",johnsongrass; 250 g ai/ha,30
same,Plant response rating,"wheat, spring; 31 g ai/ha",0
same,Plant response rating,"wheat, spring; 62 g ai/ha",0
same,Plant response rating,"wheat, spring; 125 g ai/ha",0
same,Plant response rating,"wheat, spring; 250 g ai/ha",0
same,"Plant response rating, Wheat, Spring","wheat, spring; 62 g ai/ha",10
same,"Plant response rating, Wheat, Spring","wheat, spring; 125 g ai/ha",10
same,"Plant response rating, Wheat, Spring","wheat, spring; 31 g ai/ha",0
same,"Plant response rating, Wheat, Spring","wheat, spring; 250 g ai/ha",20
same,Plant response rating,"wheat, winter; 31 g ai/ha",0
same,Plant response rating,"wheat, winter; 62 g ai/ha",0
same,Plant response rating,"wheat, winter; 125 g ai/ha",10
same,Plant response rating,"wheat, winter; 250 g ai/ha",5
same,"Plant response rating, Wheat, Winter","wheat, winter; 62 g ai/ha",5
same,"Plant response rating, Wheat, Winter","wheat, winter; 125 g ai/ha",10
same,"Plant response rating, Wheat, Winter","wheat, winter; 31 g ai/ha",5
same,"Plant response rating, Wheat, Winter","wheat, winter; 250 g ai/ha",10
"O=C1NC[C@H](c2cccc(C(F)(F)F)c2)[C@H]1C(=O)Nc1ccccc1F [Compound 204, (3R,4S)—N-(2-fluorophenyl)-2-oxo-4-[3-(trifluoromethyl)phenyl]-3-pyrrolidinecarboxamide]","Plant response rating, Field Poppy","field poppy; Preemergence, 62 g ai/ha",85
same,"Plant response rating, Field Poppy","field poppy; Preemergence, 125 g ai/ha",80
same,"Plant response rating, Field Poppy","field poppy; Preemergence, 31 g ai/ha",75
same,Plant response rating,"field poppy; Preemergence, 250 g ai/ha",95
same,"Plant response rating, Poinsettia, Wild",wild poinsettia; 31 g ai/ha,0
same,"Plant response rating, Poinsettia, Wild",wild poinsettia; 62 g ai/ha,0
same,"Plant response rating, Poinsettia, Wild",wild poinsettia; 125 g ai/ha,20
same,"Plant response rating, Poinsettia, Wild",wild poinsettia; 250 g ai/ha,20
same,"Plant response rating, Radish, Wild","radish, wild; 62 g ai/ha",0
same,"Plant response rating, Radish, Wild","radish, wild; 125 g ai/ha",0
same,"Plant response rating, Radish, Wild","radish, wild; 31 g ai/ha",0
same,"Plant response rating, Radish, Wild","radish, wild; 250 g ai/ha",0
same,"Plant response rating, Foxtail, Green","foxtail, green; Preemergence, 62 g ai/ha",98
same,"Plant response rating, Foxtail, Green","foxtail, green; Preemergence, 125 g ai/ha",98
same,"Plant response rating, Foxtail, Green","foxtail, green; Preemergence, 31 g ai/ha",90
same,Plant response rating,"foxtail, green; Preemergence, 250 g ai/ha",100
same,"Plant response rating, Johnsongrass",johnsongrass; 31 g ai/ha,0
same,"Plant response rating, Johnsongrass",johnsongrass; 62 g ai/ha,0
same,"Plant response rating, Johnsongrass",johnsongrass; 125 g ai/ha,35
same,"Plant response rating, Johnsongrass",johnsongrass; 250 g ai/ha,40
same,"Plant response rating, Wheat, Spring","wheat, spring; 62 g ai/ha",0
same,"Plant response rating, Wheat, Spring","wheat, spring; 125 g ai/ha",25
same,"Plant response rating, Wheat, Spring","wheat, spring; 31 g ai/ha",0
same,"Plant response rating, Wheat, Spring","wheat, spring; 250 g ai/ha",30
same,"Plant response rating, Wheat, Winter","wheat, winter; 62 g ai/ha",15
same,"Plant response rating, Wheat, Winter","wheat, winter; 125 g ai/ha",15
same,"Plant response rating, Wheat, Winter","wheat, winter; 31 g ai/ha",5
same,"Plant response rating, Wheat, Winter","wheat, winter; 250 g ai/ha",20
O=C1NC[C@H](c2cccc(C(F)(F)F)c2)[C@H]1C(=O)Nc1cccc(F)c1F [Compound 206],"Plant response rating, Field Poppy","field poppy; Preemergence, 62 g ai/ha",90
same,"Plant response rating, Field Poppy","field poppy; Preemergence, 125 g ai/ha",90
same,"Plant response rating, Field Poppy","field poppy; Preemergence, 31 g ai/ha",80
same,Plant response rating,"field poppy; Preemergence, 250 g ai/ha",95
same,"Plant response rating, Poinsettia, Wild",wild poinsettia; 31 g ai/ha,0
same,"Plant response rating, Poinsettia, Wild",wild poinsettia; 62 g ai/ha,10
same,"Plant response rating, Poinsettia, Wild",wild poinsettia; 125 g ai/ha,0
same,"Plant response rating, Poinsettia, Wild",wild poinsettia; 250 g ai/ha,25
same,"Plant response rating, Radish, Wild","radish, wild; 62 g ai/ha",25
same,"Plant response rating, Radish, Wild","radish, wild; 125 g ai/ha",30
same,"Plant response rating, Radish, Wild","radish, wild; 31 g ai/ha",25
same,"Plant response rating, Radish, Wild","radish, wild; 250 g ai/ha",30
same,"Plant response rating, Foxtail, Green","foxtail, green; Preemergence, 62 g ai/ha",95
same,"Plant response rating, Foxtail, Green","foxtail, green; Preemergence, 125 g ai/ha",98
same,"Plant response rating, Foxtail, Green","foxtail, green; Preemergence, 31 g ai/ha",85
same,Plant response rating,"foxtail, green; Preemergence, 250 g ai/ha",98
same,"Plant response rating, Johnsongrass",johnsongrass; 31 g ai/ha,30
same,"Plant response rating, Johnsongrass",johnsongrass; 62 g ai/ha,50
same,"Plant response rating, Johnsongrass",johnsongrass; 125 g ai/ha,75
same,"Plant response rating, Johnsongrass",johnsongrass; 250 g ai/ha,90
same,"Plant response rating, Wheat, Spring","wheat, spring; 62 g ai/ha",25
same,"Plant response rating, Wheat, Spring","wheat, spring; 125 g ai/ha",45
same,"Plant response rating, Wheat, Spring","wheat, spring; 31 g ai/ha",10
same,"Plant response rating, Wheat, Spring","wheat, spring; 250 g ai/ha",65
same,"Plant response rating, Wheat, Winter","wheat, winter; 62 g ai/ha",0
same,"Plant response rating, Wheat, Winter","wheat, winter; 125 g ai/ha",25
same,"Plant response rating, Wheat, Winter","wheat, winter; 31 g ai/ha",0
same,"Plant response rating, Wheat, Winter","wheat, winter; 250 g ai/ha",30
